Assay results from ChEMBL document CHEMBL1255213, “Bottromycin derivatives: efficient chemical modifications of the ester moiety and evaluation of anti-MRSA and anti-VRE activities” (2010).
In brackets after ≈: the same amount, converted by molar mass.

How the values were obtained:
Format in all cases: functional
Staphylococcus aureus [1] = assay: Antimicrobial activity against Staphylococcus aureus FDA209P by standard serial-dilution technique
Staphylococcus aureus [2] = assay: Antimicrobial activity against Staphylococcus aureus Smith by standard serial-dilution technique
Staphylococcus aureus [3] = assay: Antimicrobial activity against methicillin-resistant Staphylococcus aureus HH1 by standard serial-dilution technique
Staphylococcus aureus [4] = assay: Antimicrobial activity against methicillin-resistant Staphylococcus aureus 92-1191 by standard serial-dilution technique
Enterococcus faecium [5] = assay: Antimicrobial activity against Enterococcus faecium NCTC 12201 by standard serial-dilution technique
Enterococcus faecium [6] = assay: Antimicrobial activity against Enterococcus faecium NCTC 12203 by standard serial-dilution technique
Staphylococcus aureus [7] = assay: Antimicrobial activity against methicillin-resistant Staphylococcus aureus assessed as rate of residual activity; parameters: concentration or dose not given beside the values

| Structure (SMILES) | MIC (Staphylococcus aureus [1]) [µg/mL] | MIC (Staphylococcus aureus [2]) [µg/mL] | MIC (Staphylococcus aureus [3]) [µg/mL] | MIC (Staphylococcus aureus [4]) [µg/mL] | MIC (Enterococcus faecium [5]) [µg/mL] | MIC (Enterococcus faecium [6]) [µg/mL] | Activity (Staphylococcus aureus [7]) [%] |
| --- | --- | --- | --- | --- | --- | --- | --- |
| CC(C)[C@@H]1NC(=O)[C@@H]2[C@H](C)CCN2C(=O)CN/C(=N\[C@H](C(=O)N[C@H](C(=O)N[C@H](CNC(=O)N2CCSC2)c2nccs2)[C@@H](C)c2ccccc2)C(C)(C)C)[C@H](C(C)(C)C)NC1=O | 4 (≈ 4.47 µM) | 4 (≈ 4.47 µM) | 4 (≈ 4.47 µM) | 4 (≈ 4.47 µM) | 4 (≈ 4.47 µM) | 2 (≈ 2.23 µM) | 100 |
| CC(=O)NC[C@H]1CN(c2ccc(N3CCOCC3)c(F)c2)C(=O)O1 [LINEZOLID] |  |  |  |  | 2 (≈ 5.93 µM) | 2 (≈ 5.93 µM) |  |
| CC(C)[C@@H]1NC(=O)[C@@H]2[C@H](C)CCN2C(=O)CN/C(=N\[C@H](C(=O)N[C@H](C(=O)N[C@H](CNC(=O)NCc2ccccc2)c2nccs2)[C@@H](C)c2ccccc2)C(C)(C)C)[C@H](C(C)(C)C)NC1=O | 8 (≈ 8.76 µM) | 16 (≈ 17.5 µM) | 16 (≈ 17.5 µM) | 16 (≈ 17.5 µM) | 8 (≈ 8.76 µM) | 4 (≈ 4.38 µM) | 100 |
| CCSC(=O)C[C@@H](NC(=O)[C@@H](NC(=O)[C@@H](/N=C1\NCC(=O)N2CC[C@@H](C)[C@H]2C(=O)N[C@@H](C(C)C)C(=O)N[C@H]1C(C)(C)C)C(C)(C)C)[C@@H](C)c1ccccc1)c1nccs1 | ≤ 0.25 | 0.5 (≈ 0.586 µM) | ≤ 0.25 | 0.5 (≈ 0.586 µM) | ≤ 0.25 | ≤ 0.25 | 0 |
| CC(C)[C@@H]1NC(=O)[C@@H]2[C@H](C)CCN2C(=O)CN/C(=N\[C@H](C(=O)N[C@H](C(=O)N[C@H](CC(=O)N2CCSCC2)c2nccs2)[C@@H](C)c2ccccc2)C(C)(C)C)[C@H](C(C)(C)C)NC1=O | 8 (≈ 8.95 µM) | 4 (≈ 4.47 µM) | 8 (≈ 8.95 µM) | 8 (≈ 8.95 µM) | 4 (≈ 4.47 µM) | 4 (≈ 4.47 µM) | 100 |
| CC(C)[C@@H]1NC(=O)[C@@H]2[C@H](C)CCN2C(=O)CN/C(=N\[C@H](C(=O)N[C@H](C(=O)N[C@H](CC(=O)NN)c2nccs2)[C@@H](C)c2ccccc2)C(C)(C)C)[C@H](C(C)(C)C)NC1=O | 16 (≈ 19.4 µM) | 16 (≈ 19.4 µM) | 16 (≈ 19.4 µM) | 32 (≈ 38.9 µM) | 8 (≈ 9.72 µM) | 4 (≈ 4.86 µM) | 86 |
| CCCSC(=O)C[C@@H](NC(=O)[C@@H](NC(=O)[C@@H](/N=C1\NCC(=O)N2CC[C@@H](C)[C@H]2C(=O)N[C@@H](C(C)C)C(=O)N[C@H]1C(C)(C)C)C(C)(C)C)[C@@H](C)c1ccccc1)c1nccs1 | 0.5 (≈ 0.577 µM) | 0.5 (≈ 0.577 µM) | ≤ 0.25 | 1 (≈ 1.15 µM) | 1 (≈ 1.15 µM) | ≤ 0.25 | 0 |
| C#CCN1CCN(C(=O)C[C@@H](NC(=O)[C@@H](NC(=O)[C@@H](/N=C2\NCC(=O)N3CC[C@@H](C)[C@H]3C(=O)N[C@@H](C(C)C)C(=O)N[C@H]2C(C)(C)C)C(C)(C)C)[C@@H](C)c2ccccc2)c2nccs2)CC1 | 16 (≈ 17.5 µM) | 16 (≈ 17.5 µM) | 16 (≈ 17.5 µM) | 32 (≈ 35 µM) | 16 (≈ 17.5 µM) | 16 (≈ 17.5 µM) | 67 |
| C#CCNC(=O)C[C@@H](NC(=O)[C@@H](NC(=O)[C@@H](/N=C1\NCC(=O)N2CC[C@@H](C)[C@H]2C(=O)N[C@@H](C(C)C)C(=O)N[C@H]1C(C)(C)C)C(C)(C)C)[C@@H](C)c1ccccc1)c1nccs1 | 8 (≈ 9.46 µM) | 8 (≈ 9.46 µM) | 8 (≈ 9.46 µM) | 16 (≈ 18.9 µM) | 4 (≈ 4.73 µM) | 2 (≈ 2.36 µM) | 100 |
| CCCC(=O)C[C@@H](NC(=O)[C@@H](NC(=O)[C@@H](/N=C1\NCC(=O)N2CC[C@@H](C)[C@H]2C(=O)N[C@@H](C(C)C)C(=O)N[C@H]1C(C)(C)C)C(C)(C)C)[C@@H](C)c1ccccc1)c1nccs1 | 1 (≈ 1.2 µM) | 1 (≈ 1.2 µM) | 1 (≈ 1.2 µM) | 2 (≈ 2.39 µM) | 2 (≈ 2.39 µM) | 0.5 (≈ 0.599 µM) | 100 |
| CCC(=O)C[C@@H](NC(=O)[C@@H](NC(=O)[C@@H](/N=C1\NCC(=O)N2CC[C@@H](C)[C@H]2C(=O)N[C@@H](C(C)C)C(=O)N[C@H]1C(C)(C)C)C(C)(C)C)[C@@H](C)c1ccccc1)c1nccs1 | 1 (≈ 1.22 µM) | 1 (≈ 1.22 µM) | 2 (≈ 2.44 µM) | 2 (≈ 2.44 µM) | 2 (≈ 2.44 µM) | 1 (≈ 1.22 µM) | 100 |
| CC(C)[C@@H]1NC(=O)[C@@H]2[C@H](C)CCN2C(=O)CN/C(=N\[C@H](C(=O)N[C@H](C(=O)N[C@H](CC(=O)NCc2ccccc2)c2nccs2)[C@@H](C)c2ccccc2)C(C)(C)C)[C@H](C(C)(C)C)NC1=O | 8 (≈ 8.91 µM) | 8 (≈ 8.91 µM) | 8 (≈ 8.91 µM) | 8 (≈ 8.91 µM) | 8 (≈ 8.91 µM) | 2 (≈ 2.23 µM) | 71 |
| COC(=O)C[C@@H](NC(=O)[C@@H](NC(=O)[C@@H](/N=C1\NCC(=O)N2CC[C@@H](C)[C@H]2C(=O)N[C@@H](C(C)C)C(=O)N[C@H]1C(C)(C)C)C(C)(C)C)[C@@H](C)c1ccccc1)c1nccs1 | 1 (≈ 1.21 µM) | 1 (≈ 1.21 µM) | 1 (≈ 1.21 µM) | 2 (≈ 2.43 µM) | 1 (≈ 1.21 µM) | 0.5 (≈ 0.607 µM) | 0 |
| CC(C)[C@@H]1NC(=O)[C@@H]2[C@H](C)CCN2C(=O)CN/C(=N\[C@H](C(=O)N[C@H](C(=O)N[C@H](CC(=O)N2CCSC2)c2nccs2)[C@@H](C)c2ccccc2)C(C)(C)C)[C@H](C(C)(C)C)NC1=O | 4 (≈ 4.54 µM) | 4 (≈ 4.54 µM) | 8 (≈ 9.09 µM) | 8 (≈ 9.09 µM) | 8 (≈ 9.09 µM) | 2 (≈ 2.27 µM) | 100 |
| CC(C)[C@@H]1NC(=O)[C@@H]2[C@H](C)CCN2C(=O)CN/C(=N\[C@H](C(=O)N[C@H](C(=O)N[C@H](CC(=O)N2CCNCC2)c2nccs2)[C@@H](C)c2ccccc2)C(C)(C)C)[C@H](C(C)(C)C)NC1=O | 64 (≈ 73 µM) | 32 (≈ 36.5 µM) | 64 (≈ 73 µM) | 128 (≈ 146 µM) | 32 (≈ 36.5 µM) | 32 (≈ 36.5 µM) |  |
| CC(C)[C@@H]1NC(=O)[C@@H]2[C@H](C)CCN2C(=O)CN/C(=N\[C@H](C(=O)N[C@H](C(=O)N[C@H](CC(=O)N2CCN(Cc3ccccc3)CC2)c2nccs2)[C@@H](C)c2ccccc2)C(C)(C)C)[C@H](C(C)(C)C)NC1=O | 4 (≈ 4.14 µM) | 4 (≈ 4.14 µM) | 4 (≈ 4.14 µM) | 4 (≈ 4.14 µM) | 4 (≈ 4.14 µM) | 4 (≈ 4.14 µM) | 84 |
| CC(C)[C@@H]1NC(=O)[C@@H]2[C@H](C)CCN2C(=O)CN/C(=N\[C@H](C(=O)N[C@H](C(=O)N[C@H](CC(=O)N2CCN(C(=O)OC(C)(C)C)CC2)c2nccs2)[C@@H](C)c2ccccc2)C(C)(C)C)[C@H](C(C)(C)C)NC1=O | 8 (≈ 8.19 µM) | 4 (≈ 4.09 µM) | 8 (≈ 8.19 µM) | 8 (≈ 8.19 µM) | 8 (≈ 8.19 µM) | 4 (≈ 4.09 µM) | 42 |
| CN[C@H](CC(C)C)C(=O)N[C@H]1C(=O)N[C@@H](CC(N)=O)C(=O)N[C@H]2C(=O)N[C@H]3C(=O)N[C@H](C(=O)N[C@H](C(=O)O)c4cc(O)cc(O)c4-c4cc3ccc4O)[C@H](O)c3ccc(c(Cl)c3)Oc3cc2cc(c3O[C@@H]2O[C@H](CO)[C@@H](O)[C@H](O)[C@H]2O[C@H]2C[C@](C)(N)[C@H](O)[C@H](C)O2)Oc2ccc(cc2Cl)[C@H]1O [VANCOMYCIN] |  |  |  |  | > 128 | > 128 |  |
| CC(C)[C@@H]1NC(=O)[C@@H]2[C@H](C)CCN2C(=O)CN/C(=N\[C@H](C(=O)N[C@H](C(=O)N[C@H](CC(=O)N2CCOCC2)c2nccs2)[C@@H](C)c2ccccc2)C(C)(C)C)[C@H](C(C)(C)C)NC1=O | 16 (≈ 18.2 µM) | 8 (≈ 9.11 µM) | 16 (≈ 18.2 µM) | 32 (≈ 36.4 µM) | 16 (≈ 18.2 µM) | 4 (≈ 4.56 µM) | 100 |
| CC(C)[C@@H]1NC(=O)[C@@H]2[C@H](C)CCN2C(=O)CN/C(=N\[C@H](C(=O)N[C@H](C(=O)N[C@H](CC(=O)O)c2nccs2)[C@@H](C)c2ccccc2)C(C)(C)C)[C@H](C(C)(C)C)NC1=O | 64 (≈ 79.1 µM) | 64 (≈ 79.1 µM) | 64 (≈ 79.1 µM) | 128 (≈ 158 µM) | 128 (≈ 158 µM) | 32 (≈ 39.6 µM) |  |
| CC(C)SC(=O)C[C@@H](NC(=O)[C@@H](NC(=O)[C@@H](/N=C1\NCC(=O)N2CC[C@@H](C)[C@H]2C(=O)N[C@@H](C(C)C)C(=O)N[C@H]1C(C)(C)C)C(C)(C)C)[C@@H](C)c1ccccc1)c1nccs1 | 0.5 (≈ 0.577 µM) | 0.5 (≈ 0.577 µM) | 0.5 (≈ 0.577 µM) | 1 (≈ 1.15 µM) | 1 (≈ 1.15 µM) | ≤ 0.25 | 0 |
